Experimental data taken from patent US9446039B2, “Aminoheteroaryl compounds as MTH1 inhibitors” (CEMM—FORSCHUNGSZENTRUM FÜR MOLEKULARE MEDIZIN GMBH, priority 2012, dated 2016).

Legend:
Assay type in all cases: binding
[1] = molecular target: SW480 colon carcinoma cells lysate proteins (Homo sapiens, UniProt O14602); settings: PreyGene EIF1AY
[2] = molecular target: T1, SW480 colon carcinoma cells lysate proteins (Homo sapiens, UniProt P12081); settings: PreyGene HARS
T1 sequence (P12081 1-509): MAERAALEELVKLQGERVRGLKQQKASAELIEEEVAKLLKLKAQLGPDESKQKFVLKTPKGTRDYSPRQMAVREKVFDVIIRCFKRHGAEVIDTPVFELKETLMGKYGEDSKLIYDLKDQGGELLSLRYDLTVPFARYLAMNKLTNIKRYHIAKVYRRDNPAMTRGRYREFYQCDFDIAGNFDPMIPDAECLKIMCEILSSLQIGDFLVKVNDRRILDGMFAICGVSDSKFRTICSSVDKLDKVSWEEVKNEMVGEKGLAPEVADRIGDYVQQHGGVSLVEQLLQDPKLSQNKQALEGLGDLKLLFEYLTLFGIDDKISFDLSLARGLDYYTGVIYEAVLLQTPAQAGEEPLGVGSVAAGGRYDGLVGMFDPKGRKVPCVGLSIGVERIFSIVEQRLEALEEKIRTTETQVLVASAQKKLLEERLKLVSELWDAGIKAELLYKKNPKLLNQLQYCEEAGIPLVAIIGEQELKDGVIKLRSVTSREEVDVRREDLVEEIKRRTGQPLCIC

[3] = molecular target: T2, SW480 colon carcinoma cells lysate proteins (Homo sapiens, UniProt P14174); settings: PreyGene MIF
T2 sequence (P14174 1-115): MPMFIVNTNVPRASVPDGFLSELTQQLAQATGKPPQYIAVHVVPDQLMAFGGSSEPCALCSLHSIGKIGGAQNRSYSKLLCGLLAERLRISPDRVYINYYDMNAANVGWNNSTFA

[4] = molecular target: SW480 colon carcinoma cells lysate proteins (Homo sapiens, UniProt P26038); settings: PreyGene MSN
[5] = molecular target: T3, SW480 colon carcinoma cells lysate proteins (Homo sapiens, UniProt P53618); settings: PreyGene COPB1
T3 sequence (P53618 1-953): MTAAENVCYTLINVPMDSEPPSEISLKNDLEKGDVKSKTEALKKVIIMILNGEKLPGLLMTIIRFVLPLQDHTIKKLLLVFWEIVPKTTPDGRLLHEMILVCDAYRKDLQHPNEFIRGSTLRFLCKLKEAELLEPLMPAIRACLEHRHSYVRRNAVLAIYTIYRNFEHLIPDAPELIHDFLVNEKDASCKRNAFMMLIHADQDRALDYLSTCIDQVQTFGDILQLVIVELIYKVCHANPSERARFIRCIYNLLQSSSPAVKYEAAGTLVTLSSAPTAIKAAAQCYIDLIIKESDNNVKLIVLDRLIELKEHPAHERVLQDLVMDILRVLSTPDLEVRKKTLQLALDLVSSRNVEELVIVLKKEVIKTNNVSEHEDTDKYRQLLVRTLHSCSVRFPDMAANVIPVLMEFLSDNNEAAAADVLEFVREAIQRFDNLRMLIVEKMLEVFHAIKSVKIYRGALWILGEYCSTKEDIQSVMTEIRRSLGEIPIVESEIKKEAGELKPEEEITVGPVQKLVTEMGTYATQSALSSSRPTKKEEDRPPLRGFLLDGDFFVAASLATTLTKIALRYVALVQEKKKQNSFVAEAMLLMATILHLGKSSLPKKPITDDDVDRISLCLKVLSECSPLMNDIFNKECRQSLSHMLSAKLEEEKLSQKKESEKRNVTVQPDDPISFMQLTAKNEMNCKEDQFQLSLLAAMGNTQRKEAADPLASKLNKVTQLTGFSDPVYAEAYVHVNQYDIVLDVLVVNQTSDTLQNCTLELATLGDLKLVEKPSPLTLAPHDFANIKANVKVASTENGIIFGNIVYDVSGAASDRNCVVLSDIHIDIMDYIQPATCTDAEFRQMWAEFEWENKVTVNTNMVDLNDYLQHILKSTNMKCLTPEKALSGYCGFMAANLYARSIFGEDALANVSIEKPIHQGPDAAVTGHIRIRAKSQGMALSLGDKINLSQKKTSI

[6] = molecular target: T4, SW480 colon carcinoma cells lysate proteins (Homo sapiens, UniProt Q9BRA2); settings: PreyGene TXNDC17
T4 sequence (Q9BRA2 1-123): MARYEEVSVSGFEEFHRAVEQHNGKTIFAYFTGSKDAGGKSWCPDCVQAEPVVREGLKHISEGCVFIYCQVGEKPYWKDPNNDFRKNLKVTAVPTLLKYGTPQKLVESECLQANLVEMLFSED

[7] = molecular target: SW480 colon carcinoma cells lysate proteins (Homo sapiens, UniProt Q9NZI8); settings: PreyGene IGF2BP1; SW480 cells
Chain of SW480 colon carcinoma cells lysate proteins (Homo sapiens, UniProt Q9NZI8) (Q9NZI8 whole entry): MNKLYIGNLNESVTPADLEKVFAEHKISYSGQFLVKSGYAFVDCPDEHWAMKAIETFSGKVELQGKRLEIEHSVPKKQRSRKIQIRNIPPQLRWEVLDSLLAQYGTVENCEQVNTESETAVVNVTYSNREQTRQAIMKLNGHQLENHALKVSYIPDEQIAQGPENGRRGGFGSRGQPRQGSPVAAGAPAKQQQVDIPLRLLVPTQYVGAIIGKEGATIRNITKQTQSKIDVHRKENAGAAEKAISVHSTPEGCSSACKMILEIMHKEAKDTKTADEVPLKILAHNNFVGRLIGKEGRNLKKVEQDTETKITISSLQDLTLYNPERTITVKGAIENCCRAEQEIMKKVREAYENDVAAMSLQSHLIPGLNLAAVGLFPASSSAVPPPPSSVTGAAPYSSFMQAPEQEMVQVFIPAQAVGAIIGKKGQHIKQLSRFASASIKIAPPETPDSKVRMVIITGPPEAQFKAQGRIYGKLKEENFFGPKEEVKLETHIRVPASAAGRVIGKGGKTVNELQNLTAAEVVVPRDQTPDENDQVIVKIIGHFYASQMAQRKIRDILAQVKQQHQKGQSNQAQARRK

Chain of SW480 colon carcinoma cells lysate proteins (Homo sapiens, UniProt P26038) (P26038 whole entry): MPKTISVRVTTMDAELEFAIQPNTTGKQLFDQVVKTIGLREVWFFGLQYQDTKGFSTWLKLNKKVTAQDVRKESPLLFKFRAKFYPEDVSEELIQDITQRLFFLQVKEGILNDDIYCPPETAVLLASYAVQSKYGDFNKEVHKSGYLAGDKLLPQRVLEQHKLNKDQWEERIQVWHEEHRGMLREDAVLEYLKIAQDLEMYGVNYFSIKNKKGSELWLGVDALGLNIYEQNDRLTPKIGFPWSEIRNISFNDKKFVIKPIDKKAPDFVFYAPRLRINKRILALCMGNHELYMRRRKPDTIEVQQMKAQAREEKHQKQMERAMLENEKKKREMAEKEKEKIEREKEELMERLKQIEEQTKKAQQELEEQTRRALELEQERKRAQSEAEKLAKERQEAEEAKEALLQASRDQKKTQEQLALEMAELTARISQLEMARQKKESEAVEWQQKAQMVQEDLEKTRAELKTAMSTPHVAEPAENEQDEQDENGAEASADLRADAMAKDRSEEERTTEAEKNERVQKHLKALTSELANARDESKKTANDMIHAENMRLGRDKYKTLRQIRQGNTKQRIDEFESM
Chain of SW480 colon carcinoma cells lysate proteins (Homo sapiens, UniProt O14602) (O14602 whole entry): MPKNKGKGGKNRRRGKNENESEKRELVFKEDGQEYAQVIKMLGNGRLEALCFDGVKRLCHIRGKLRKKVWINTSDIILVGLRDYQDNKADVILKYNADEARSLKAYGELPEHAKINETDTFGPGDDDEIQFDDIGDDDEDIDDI

SMILES: C[C@H](Oc1cc(-c2cnn(C3CCNCC3)c2)cnc1N)c1c(Cl)ccc(F)c1Cl [(5)-crizotinib]
- AvgP [1]: 0.3949
- SC.Exp. 1-1 [1]: 2
- SC.Exp. 1-2 [1]: 3
- SC.Exp. 2-1 [1]: 0
- SC.Exp. 2-2 [1]: 0
- Sum (SC.Exp.) [1]: 5
- AvgP [2]: 0.3676
- SC.Exp. 1-1 [2]: 3
- SC.Exp. 1-2 [2]: 3
- SC.Exp. 2-1 [2]: 0
- SC.Exp. 2-2 [2]: 0
- Sum (SC.Exp.) [2]: 6
- AvgP [3]: 0.3362
- SC.Exp. 1-1 [3]: 0
- SC.Exp. 1-2 [3]: 1
- SC.Exp. 2-1 [3]: 2
- SC.Exp. 2-2 [3]: 2
- Sum (SC.Exp.) [3]: 5
- AvgP [4]: 0.2291
- SC.Exp. 1-1 [4]: 11
- SC.Exp. 1-2 [4]: 11
- SC.Exp. 2-1 [4]: 0
- SC.Exp. 2-2 [4]: 0
- Sum (SC.Exp.) [4]: 22
- AvgP [5]: 0.2093
- SC.Exp. 1-1 [5]: 1
- SC.Exp. 1-2 [5]: 3
- SC.Exp. 2-1 [5]: 0
- SC.Exp. 2-2 [5]: 0
- Sum (SC.Exp.) [5]: 4
- AvgP [6]: 0.1862
- SC.Exp. 1-1 [6]: 2
- SC.Exp. 1-2 [6]: 3
- SC.Exp. 2-1 [6]: 0
- SC.Exp. 2-2 [6]: 0
- Sum (SC.Exp.) [6]: 5
- AvgP [7]: 0
- SC.Exp. 1-1 [7]: 4
- SC.Exp. 1-2 [7]: 8
- SC.Exp. 2-1 [7]: 4
- SC.Exp. 2-2 [7]: 6
- SC.Exp. Sum [7]: 22
